Test results: patent publication US20240239863A1, “GIP RECEPTOR AGONIST AND USE THEREOF” (HANGZHOU ZHONGMEIHUADONG PHARMACEUTICAL CO., LTD., priority 2022, published 2024)
Starred links: 1 amine or outer side, 2 acyl side, 3 side chain; linkers in the order of their positions; H or OH if unused. Non-standard residues stand in square brackets, D forms with d. Residues, ends and D or L forms follow the SMILES beside them. Groups on a side chain read outwards from the residue. *: point of attachment. d(γGlu) = O=C(O)[C@@H](CCC(=O)[*:2])N[*:1]; C18 diacid = O=C(O)CCCCCCCCCCCCCCCCC(=O)*; AEEA = NCCOCCOCC(=O)O; Aib = CC(C)(N)C(=O)O

Target: hGLP-1R (Homo sapiens, UniProt P43220)
Sequence (P43220 24-463): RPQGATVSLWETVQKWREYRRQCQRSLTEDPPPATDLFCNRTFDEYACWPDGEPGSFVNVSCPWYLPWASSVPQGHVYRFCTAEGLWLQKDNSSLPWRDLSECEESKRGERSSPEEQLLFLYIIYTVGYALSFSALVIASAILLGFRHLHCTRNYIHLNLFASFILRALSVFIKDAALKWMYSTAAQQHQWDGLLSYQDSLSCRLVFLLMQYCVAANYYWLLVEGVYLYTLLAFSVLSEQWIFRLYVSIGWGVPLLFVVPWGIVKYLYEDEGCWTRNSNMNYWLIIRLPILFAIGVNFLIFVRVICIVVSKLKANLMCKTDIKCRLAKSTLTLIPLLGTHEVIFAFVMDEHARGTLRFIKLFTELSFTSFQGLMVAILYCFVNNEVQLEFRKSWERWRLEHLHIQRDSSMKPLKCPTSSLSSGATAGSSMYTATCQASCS
Assay: Cell agonistic activity at GLP-1 receptor (Example 7)
Type: cell-based
Conditions: not given

SMILES	EC50
CC[C@H](C)[C@H](NC(=O)[C@H](CO)NC(=O)[C@H](Cc1ccc(O)cc1)NC(=O)[C@H](CC(=O)O)NC(=O)[C@H](CO)NC(=O)[C@@H](NC(=O)[C@H](Cc1ccccc1)NC(=O)[C@@H](NC(=O)CNC(=O)[C@H](CCC(=O)O)NC(=O)C(C)(C)NC(=O)[C@@H](N)Cc1ccc(O)cc1)[C@@H](C)O)[C@@H](C)CC)C(=O)N[C@@H](C)C(=O)N[C@@H](CC(C)C)C(=O)N[C@@H](CC(=O)O)C(=O)N[C@@H](CCCCN)C(=O)N[C@H](C(=O)N[C@@H](Cc1c[nH]cn1)C(=O)N[C@@H](CCC(N)=O)C(=O)N[C@@H](CCC(N)=O)C(=O)N[C@@H](CC(=O)O)C(=O)N[C@@H](Cc1ccccc1)C(=O)N[C@H](C(=O)N[C@@H](CC(N)=O)C(=O)N[C@@H](Cc1c[nH]c2ccccc12)C(=O)N[C@@H](CC(C)C)C(=O)N[C@@H](CC(C)C)C(=O)N[C@@H](C)C(=O)N[C@@H](CCC(N)=O)C(=O)N[C@@H](CCCNC(=N)N)C(=O)NCC(=O)O)C(C)C)[C@@H](C)CC [Sequence 7] (H-Y[Aib]EGTFISDYSIALDKIHQQDFVNWLLAQRG-OH; N-terminus and C-terminus assumed)	> 0.1 nM
CC[C@H](C)[C@H](NC(=O)[C@H](CCCCN)NC(=O)[C@H](CC(=O)O)NC(=O)[C@H](CC(C)C)NC(=O)C(C)(C)NC(=O)[C@@H](NC(=O)[C@H](CO)NC(=O)[C@H](Cc1ccc(O)cc1)NC(=O)[C@H](CC(=O)O)NC(=O)[C@H](CO)NC(=O)[C@@H](NC(=O)[C@H](Cc1ccccc1)NC(=O)[C@@H](NC(=O)CNC(=O)[C@H](CCC(=O)O)NC(=O)C(C)(C)NC(=O)[C@@H](N)Cc1ccc(O)cc1)[C@@H](C)O)[C@@H](C)CC)[C@@H](C)CC)C(=O)N[C@@H](Cc1c[nH]cn1)C(=O)N[C@@H](CCC(N)=O)C(=O)N[C@@H](CCC(=O)O)C(=O)N[C@@H](CC(=O)O)C(=O)N[C@@H](Cc1ccccc1)C(=O)N[C@H](C(=O)N[C@@H](CCCCN)C(=O)N[C@@H](Cc1c[nH]c2ccccc12)C(=O)N[C@@H](CC(C)C)C(=O)N[C@@H](CC(C)C)C(=O)N[C@@H](C)C(=O)N[C@@H](CCC(N)=O)C(=O)N[C@@H](CCCCN)C(=O)NCC(=O)O)C(C)C [Sequence 1] (H-Y[Aib]EGTFISDYSI[Aib]LDKIHQEDFVKWLLAQKG-OH; N-terminus and C-terminus assumed)	> 0.1 nM
CC[C@H](C)[C@H](NC(=O)[C@H](CO)NC(=O)[C@H](Cc1ccc(O)cc1)NC(=O)[C@H](CC(=O)O)NC(=O)[C@H](CO)NC(=O)[C@@H](NC(=O)[C@H](Cc1ccccc1)NC(=O)[C@@H](NC(=O)CNC(=O)[C@H](CCC(=O)O)NC(=O)C(C)(C)NC(=O)[C@@H](N)Cc1ccc(O)cc1)[C@@H](C)O)[C@@H](C)CC)C(=O)N[C@@H](C)C(=O)N[C@@H](CC(C)C)C(=O)N[C@@H](CC(=O)O)C(=O)N[C@@H](CCCNC(=N)N)C(=O)N[C@H](C(=O)N[C@@H](Cc1c[nH]cn1)C(=O)N[C@@H](CCC(N)=O)C(=O)N[C@@H](CCC(=O)O)C(=O)N[C@@H](CC(=O)O)C(=O)N[C@@H](Cc1ccccc1)C(=O)N[C@H](C(=O)N[C@@H](CCCCN)C(=O)N[C@@H](Cc1c[nH]c2ccccc12)C(=O)N[C@@H](CC(C)C)C(=O)N[C@@H](CC(C)C)C(=O)N[C@@H](C)C(=O)N[C@@H](CCC(N)=O)C(=O)N[C@@H](CCCNC(=N)N)C(=O)NCC(=O)O)C(C)C)[C@@H](C)CC [Sequence 11] (H-Y[Aib]EGTFISDYSIALDRIHQEDFVKWLLAQRG-OH; N-terminus and C-terminus assumed)	> 0.1 nM
CC[C@H](C)[C@H](NC(=O)[C@H](CO)NC(=O)[C@H](Cc1ccc(O)cc1)NC(=O)[C@H](CC(=O)O)NC(=O)[C@H](CO)NC(=O)[C@@H](NC(=O)[C@H](Cc1ccccc1)NC(=O)[C@@H](NC(=O)CNC(=O)[C@H](CCC(=O)O)NC(=O)C(C)(C)NC(=O)[C@@H](N)Cc1ccc(O)cc1)[C@@H](C)O)[C@@H](C)CC)C(=O)N[C@@H](C)C(=O)N[C@@H](CC(C)C)C(=O)N[C@@H](CC(=O)O)C(=O)N[C@@H](CCCNC(=N)N)C(=O)N[C@@H](CC(C)C)C(=O)N[C@@H](Cc1c[nH]cn1)C(=O)N[C@@H](CCC(N)=O)C(=O)N[C@@H](CCC(=O)O)C(=O)N[C@@H](CC(=O)O)C(=O)N[C@@H](Cc1ccccc1)C(=O)N[C@H](C(=O)N[C@@H](CC(N)=O)C(=O)N[C@@H](Cc1c[nH]c2ccccc12)C(=O)N[C@@H](CC(C)C)C(=O)N[C@@H](CC(C)C)C(=O)N[C@@H](C)C(=O)N[C@@H](CCC(N)=O)C(=O)N[C@@H](CCCCN)C(=O)NCC(=O)O)C(C)C [Sequence 16] (H-Y[Aib]EGTFISDYSIALDRLHQEDFVNWLLAQKG-OH; N-terminus and C-terminus assumed)	> 0.1 nM
CC[C@H](C)[C@H](NC(=O)[C@H](CO)NC(=O)[C@H](Cc1ccc(O)cc1)NC(=O)[C@H](CC(=O)O)NC(=O)[C@H](CO)NC(=O)[C@@H](NC(=O)[C@H](Cc1ccccc1)NC(=O)[C@@H](NC(=O)CNC(=O)[C@H](CCC(=O)O)NC(=O)C(C)(C)NC(=O)[C@@H](N)Cc1ccc(O)cc1)[C@@H](C)O)[C@@H](C)CC)C(=O)N[C@@H](C)C(=O)N[C@@H](CC(C)C)C(=O)N[C@@H](CC(=O)O)C(=O)N[C@@H](CCC(=O)O)C(=O)N[C@@H](CC(C)C)C(=O)N[C@@H](Cc1c[nH]cn1)C(=O)N[C@@H](CCC(N)=O)C(=O)N[C@@H](CCCCN)C(=O)N[C@@H](CC(=O)O)C(=O)N[C@@H](Cc1ccccc1)C(=O)N[C@H](C(=O)N[C@@H](CC(N)=O)C(=O)N[C@@H](Cc1c[nH]c2ccccc12)C(=O)N[C@@H](CC(C)C)C(=O)N[C@@H](CC(C)C)C(=O)N[C@@H](C)C(=O)N[C@@H](CCC(N)=O)C(=O)N[C@@H](CCCNC(=N)N)C(=O)NCC(=O)O)C(C)C [Sequence 6] (H-Y[Aib]EGTFISDYSIALDELHQKDFVNWLLAQRG-OH; N-terminus and C-terminus assumed)	> 0.1 nM

Same assay, conditions: read-out: hGLP-1R EC50

SMILES	EC50
CC[C@H](C)[C@H](NC(=O)[C@H](CO)NC(=O)[C@H](Cc1ccc(O)cc1)NC(=O)[C@H](CC(=O)O)NC(=O)[C@H](CO)NC(=O)[C@@H](NC(=O)[C@H](Cc1ccccc1)NC(=O)[C@@H](NC(=O)CNC(=O)[C@H](CCC(=O)O)NC(=O)C(C)(C)NC(=O)[C@@H](N)Cc1ccc(O)cc1)[C@@H](C)O)[C@@H](C)CC)C(=O)N[C@@H](C)C(=O)N[C@@H](CC(C)C)C(=O)N[C@@H](CC(=O)O)C(=O)N[C@@H](CCCCNC(=O)COCCOCCNC(=O)COCCOCCNC(=O)CC[C@@H](NC(=O)CCCCCCCCCCCCCCCCC(=O)O)C(=O)O)C(=O)N[C@@H](CC(C)C)C(=O)N[C@@H](Cc1c[nH]cn1)C(=O)N[C@@H](CCC(N)=O)C(=O)N[C@@H](CCC(=O)O)C(=O)N[C@@H](CC(=O)O)C(=O)N[C@@H](Cc1ccccc1)C(=O)N[C@H](C(=O)N[C@@H](CC(N)=O)C(=O)N[C@@H](Cc1c[nH]c2ccccc12)C(=O)N[C@@H](CC(C)C)C(=O)N[C@@H](CC(C)C)C(=O)N[C@@H](C)C(=O)N[C@@H](CCC(N)=O)C(=O)N[C@@H](CCCNC(=N)N)C(=O)NCC(=O)O)C(C)C [Peptide 10, N-{ε-16}-18-{[(23R)-23-carboxyl-2,11,20-trioxo-10,19-diaza-4,7,13,16-tetraoxatricosyl-23-yl]amino}-18-oxooctadecanoic acid acetyl-[Aib2, L14, L17, E20, R30]-hGIP(1-31)] (H-Y[Aib]EGTFISDYSIALDK([AEEA-AEEA-d(γGlu)-C18 diacid])LHQEDFVNWLLAQRG-OH)	> 0.1 nM
